Laboratory results as given in patent US6656907B1, “Method of treating gastric ulcer by administration of epidermal growth factor” (University Technologies International Inc., priority 1995, dated 2003).

Tested on: intestinal brush border membrane nutrient absorption
Experiment: Nutrient uptake into brush border membrane vesicles after jejunal loop treatment
Type: in vivo, New Zealand White rabbits
Experimental: Subsequent experiments examined the effects of EGF and an inhibitor of the EGF receptor (tyrphostin 51) on intestinal brush border membrane nutrient absorption. Tyrphostin 51is a specific inhibitor of tyrosine kinase, which is a critical element of the EGF intracellular signalling cascade. Studies were performed in New Zealand White rabbits (700-1000 g; approximately 8 weeks of age). Two 10 cm blind jejunal loops separated by a 1 cm segment were tied off starting 5 cm distal to the ligament of Treitz. In separate experiments either EGF (60 ng/ml), EGF+tyrphostin (10 μM), or tyrphostin (10 μM) alone in 1.5 ml of saline vehicle was administered to one of the loops. The other loop received vehicle alone and served as a paired control. After one hour, the loops were removed and the mucosa scraped for preparation of brush border membrane vesicles. Nutrient (D-glucose and L-proline) uptake into brush border membrane vesicles was determined by established techniques. Luminal EGF stimulated a significant increase (p<0.001) in brush border membrane glucose (EGF 16.1±1.0 vs CONTROL 11.5±0.9 nmol/min/mg protein; n=5) and proline (EGF 3.8±0.5 vs CONTROL 2.6±0.3 nmol/min/mg protein; n=5) transport compared to controls. […] Subsequently, a further series of experiments examined the effect of tyrphostin alone on brush border glucose transport. […]

## N#CC(C#N)=C(N)/C(C#N)=C/c1cc(O)c(O)c(O)c1 [TYR, tyrphostin 51, reference compound]
Concurrent tyrphostin 10 μM with EGF 60 ng/ml
  effect on EGF-induced increase in glucose uptake: completely blocked
Tyrphostin 10 μM alone, one hour, n=4, control 10.7±1.0
  brush border membrane glucose uptake: 8.0±0.8 nmol/min/mg protein
